Earlier results, collected in patent US20120077872A1, “PRESERVATIVE-FREE PHARMACEUTICAL TETRAHYDROLIPSTATIN COMPOSITIONS” (EMS S.A., priority 2009, published 2012).

Settings: stored at dry atmosphere

Compound: CCCCCCCCCCC[C@@H](C[C@@H]1OC(=O)[C@H]1CCCCCC)OC(=O)[C@H](CC(C)C)NC=O [THL, N-Formyl-L-leucine (1S)-1-[[(2S,3S)-3-hexyl-4-oxo-2-oxetanyl]methyl]dodecyl ester]
- temperature at which degradation starts: around 40 °C
